# According to patent publication US20250073202A1, “METHODS TO TREAT RENAL DISORDERS USING CALCIUM CHANNEL INHIBITORS” (The Trustees of Indiana University, priority 2018, published 2025):
# Marks after values point to notes of the source that are not given here.
# How the values were obtained:
# human blood CD4+ cells = test: In vitro stimulation of human blood CD4+ cells from AKI patients with elevated sodium, IL17 response; format: cell-based; details: 170 mM Na+, overnight (~12 hours)
# Protocol: For in vitro stimulation of human blood cells, primary T cells were isolated from fresh blood using Straight whole blood CD4 kit from Miltneyli Biotech (Miltenyli, San Diego, CA) according to manufactures' protocol. CD4+T cells were plated at a density of 1×10^6 cells/mL in RPMI medium supplemented with FBS. Cells were stimulated with human anti-CD3/CD28 dynabeads (Gibco; Catalogue no 11161D) along with labeled treatment overnight (˜12 hours). T cells were harvested and incubated with monensin for 6 hours, prior to staining for IL-17 (Table 4).
# [1] = test system: glycerol-induced kidney injury; test: Glycerol-induced kidney injury (rhabdomyolysis model of AKI) in rats, 24 hours following injection; format: in vivo, rat
# Text: Rats were allowed to recover for various periods of time as described in the Results. In Study I, lymphocytes were studied in vitro after recovery for either 2 or 7 days following I/R or sham surgery for evaluation of function in vitro or for FACS analysis. In Study II, the effect of SOCE on kidney injury was studied with the inhibitor YM58483/BPT2 (N-[4-[3,5-Bis(trifluoromethyl)-1H-pyrazol-1-yl]phenyl]-4-methyl-1,2,3-thiadiazole-5-carboxamide; Tocris/Bio-Techne Minneapolis, MN). Rats were pretreated p.o. 2-3 hours prior to surgery with YM58483.BPT2 (1 mg·kg^−1) in sugar-free chocolate pudding following dilution in 100% EtOH, at, a dose previously shown to affect T cell activation in rats. In some experiments, rats were also treated with the IL17Rc (150 ng/day i.p; R&D Systems). In addition, one experiment utilized a model of rhabdomyolysis, induced by injection of 50% glycerol (10 ml/kg) into the hindlimb muscle of rats following 16 hours of water restriction.
# To measure creatinine, tail blood was collected in heparin containing tubes and centrifuged to collect plasma. Plasma creatinine was measured using a Pointe Scientific Analyzer and Creatinine Assay reagents using methods outlined by the manufacturer (Pointe Scientific, Canton MI). Urine was collected for 24 hours by placing rats in metabolic cages and urine volume was determined gravimetrically. Urine creatinine was measured using a colorimetric assay adopted for microplate readers. Creatinine clearance was measured using UCr*V/PCr.
# Freshly harvested kidneys were minced and digested in liberase (2 μg/ml. Roche, Indianapolis IN) for 15 min at 37° C. using Gentle MACs (Miltenyli, San Diego, CA). The digested tissue was filtered through a 100-μm mesh and washed with RPMI containing 10% fetal bovine serum (Invitrogen). Mononuclear cells were isolated using Percol (Sigma) density gradient centrifugation.
# (§1) To evaluate protein expression of IL17 or Orai1, Orai2 or Orai3, cells were restimulated with PMA and ionomycin for 6 hours in the presence of monensin (Golgistop, 1 μg·ml, BD Biosciences) permeabilized with saponin ([…]) and stained with relevant antibody. Cells were scanned using flow cytometry (FACSCalibur, BD Biosciences, San Jose, CA) and scans were analyzed using Flowjo software (Tree Star, Ashland, OR).
# AKI-primed CD4+ cells = test: In vitro stimulation of AKI-primed kidney CD4+ cells with Ang II and elevated Na+, IL17 response; format: cell-based, rat; details: inhibitor 10 μM; Ang II 10^-7 M and 170 mM Na+; 12-14 hours; cells 7 days post I/R
# Protocol: Total RNA was obtained from kidney using Trizol and the Zymogen RNA extraction kit and cDNA was prepared using MMLV enzyme (Invitrogen, Carlsburg, CA). Quantitative real time PCR (qPCR) using gene specific primers was performed using ABI 7500 (Applied Biosystems, Foster City, CA). mRNA values were calculated using 2^−ΔΔCt. Specific primers sequences for IL-6 (catalog #Rn01410330_m1), Kim-1 (#Rn00597703_m1) and IL17 (Rn01757168_m1) were purchased from ThermoFisher (Waltham, MA).
# as §1
# CD4+T cells were isolated using the MACS Pan-T cell microbead separation kit (Miltenyl, Glabach, Germany). T cells were stimulated with plate bound anti-CD3 (precoated with 2 μg/mL) and soluble anti-CD28 (1 μg/mL). Cells (2.5×10^5 in 0.25 ml) were incubated 12-14 hours at 37° C. in RPMI medium supplemented with 10% FBS (Invitrogen) in a 48-well plate. Cells were challenged with Ang II (Sigma, 10^−7M) and raising the extracellular Na+ from 140 mM to 170 mM, using a 1 M NaCl solution. Calcium channel inhibitors 2ABP (10 μM, Sigma) AnCoA4 (10 μM, Millipore, Burlington, MA) and YM58483/BTP2 (10 μM) were included to evaluate effects on IL-17.
# [2] = 24 hours following glycerol injection, mean ± S.E.
compound,measurement,setting,value
"Cc1nnsc1C(=O)Nc1ccc(-n2nc(C(F)(F)F)cc2C(F)(F)F)cc1 [YM58483/BPT2, N-[4-[3,5-Bis(trifluoromethyl)-1H-pyrazol-1-yl]phenyl]-4-methyl-1,2,3-thiadiazole-5-carboxamide]",IL17 response to elevated extracellular sodium,human blood CD4+ cells,inhibited
same,CD4+ cells per g,[1]; [2],177606 ± 282 cells per g
same,CD4+/IL-17+ cells per g,[1]; [2],20622 ± 4191* cells per g
same,CD8+ cells per g,[1]; [2],342433 ± 76011 cells per g
same,CD8+/IL-17+ cells per g,[1]; [2],19711 ± 6499* cells per g
same,Serum Creatinine,[1]; [2],3.3 ± 0.4* mg/dl
same,Total IL-17+ cells per g,[1]; [2],60109 ± 21033* cells per g
same,rise in serum creatinine,"[1]; glycerol model, 24 hours",significantly attenuated
same,total number of IL17+ expressing cells,"[1]; glycerol model, 24 hours",significantly attenuated
same,"increase in IL17+ cells (IL17 protein, FACS)",AKI-primed CD4+ cells,completely blocked
same,increase of IL17 mRNA,AKI-primed CD4+ cells,completely blocked
